Target: T1, HCV polymerase (Hepatitis C virus genotype 1b, UniProt P26663)
T1 construct: 2.5 pmoles (0.15 μg) HCV polymerase protein in a final volume of 75 μL
Test: HCV polymerase primer/template-directed transcription assay (32P-GTP incorporation, filter binding)
Type: biochemical
Details: @ 50 uM compound; given where IC50 was impractical to calculate; read-out: percent inhibition
Protocol: The compounds described herein were tested for activity with HCV polymerase. Recombinant HCV polymerase was tested for its ability to perform primer/template-directed transcription in assays that contained 30 mM tris-HCl pH 7.2, 10 mM MgCl2, 20 mM NaCl, 1 mM Dithiothreitol (DTT), 0.05% Tween-20, 1% glycerol, 5 pmoles biotin-dG12 (primer), 0.5 pmoles poly(rC)300 (template), 1 μM GTP, 0.1-0.3 uCi α-^32P-GTP, and 2.5 pmoles (0.15 μg) HCV polymerase protein in a final volume of 75 μL. Reactions were initiated by addition of enzyme and incubated 30 minutes at 30° C. Reactions were stopped by addition of 33 mM EDTA, and polynucleotide products were collected by filtration through Diethylaminoethyl (DE) Filtermat papers (Wallac). Unincorporated triphosphate was removed by washing the filters with 5% dibasic sodium phosphate. The filters were counted in a Packard Tri-Lux Microbeta scintillation counter (Packard Bioscience, Meriden, Conn.). Compounds to be tested were added at various concentrations, e.g., 1 μm to 50 μm, from stocks in 10% DMSO-water (final DMSO is 1% in reaction).
IC50 values were estimated from the primary cpm data (collected in triplicate) using the formula: cpm (I)=cpm(no inhibitor)(1−([I]/([I]+IC50))). An IC50 value represents the concentration (in μM) of a compound that provides 50% inhibition of polymerase-directed transcription in the above assay. A percent inhibition value is expressed for a compound where it was impractical to calculate an IC50 value with available data. If the IC50 estimated by the above equation was less than 200 nM, it was recalculated using the following equation, which takes into account the enzyme concentration (30 nM) in the assay: cpm(I)=cpm(no inhibitor)(1−((((I+IC50+30e−9)−sqrt(((I+IC50+30e−9)^2)−4×30e−9×I)))/((2)(30e−9))). Curve fitting was performed using the program KaleidaGraph (Synergy Software, Reading, Pa.).

T1 sequence (P26663 2420-3010): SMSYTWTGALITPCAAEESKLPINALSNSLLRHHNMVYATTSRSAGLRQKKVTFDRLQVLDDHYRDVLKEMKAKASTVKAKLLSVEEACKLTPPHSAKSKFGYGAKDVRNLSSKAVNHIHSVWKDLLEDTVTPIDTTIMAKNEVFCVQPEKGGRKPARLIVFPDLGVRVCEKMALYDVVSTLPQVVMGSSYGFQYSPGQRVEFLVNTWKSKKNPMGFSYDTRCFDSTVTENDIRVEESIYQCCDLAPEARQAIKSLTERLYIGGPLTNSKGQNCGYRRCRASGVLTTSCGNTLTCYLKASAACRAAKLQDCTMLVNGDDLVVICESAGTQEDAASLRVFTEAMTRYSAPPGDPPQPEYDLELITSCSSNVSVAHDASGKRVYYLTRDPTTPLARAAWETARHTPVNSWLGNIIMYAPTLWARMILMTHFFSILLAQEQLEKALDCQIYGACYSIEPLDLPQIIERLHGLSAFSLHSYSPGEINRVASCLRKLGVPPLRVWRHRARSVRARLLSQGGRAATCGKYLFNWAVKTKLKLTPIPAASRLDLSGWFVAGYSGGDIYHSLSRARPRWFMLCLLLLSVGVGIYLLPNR

`Cc1cc(C)n2nc(CC3=C(O)CC(CCC(=O)NC4CCN(C(=O)OC(C)(C)C)CC4)(C4CCCC4)OC3=O)nc2n1` (centres unmarked) [B(109), 4-{3-[2-Cyclopentyl-5-(5,7-dimethyl-[1,2,4]triazolo[1,5-a]pyrimidin-2-ylmethyl)-4-hydroxy-6-oxo-3,6-dihydro-2H-pyran-2-yl]-propionylamino}-piperidine-1-carboxylic acid tert-butyl ester] showed an inhibition at 50 µM of 23%.

Same assay, conditions: recombinant HCV polymerase; 30 minutes at 30° C.; concentration giving 50% inhibition of polymerase-directed transcription; read-out: IC50

Compared with `O=C1CC(=O)OC(CCc2ccc(O)c(CC(F)(F)F)c2)(C2CCCC2)C1` (centres unmarked) [A(228), 6-cyclopentyl-6-{2-[4-hydroxy-3-(2,2,2-trifluoroethyl)phenyl]ethyl}dihydro-2H-pyran-2,4(3H)-dione], `O=C1CC(=O)OC(CCc2ccc(O)c(C3CCCC3)c2)(C2CCCC2)C1` (centres unmarked) [A(89), 6-cyclopentyl-6-[2-(3-cyclopentyl-4-hydroxyphenyl)ethyl]dihydro-2H-pyran-2,4(3H)-dione] is 6-fold higher in IC50: 470 nM for the first, 2800 nM for the second.

Compared with `CCc1ccc(OCCOC)c(CCC2(C3CCCC3)CC(O)=C(Cc3nc4ncc(C)cn4n3)C(=O)O2)c1` (centres unmarked) [A(179), 6-Cyclopentyl-6-{2-[5-ethyl-2-(2-methoxy-ethoxy)-phenyl]-ethyl}-4-hydroxy-3-(6-methyl-[1,2,4]triazolo[1,5-a]pyrimidin-2-ylmethyl)-5,6-dihydro-pyran-2-one], `Cc1cnc2nc(CC3=C(O)CC(CCc4ccc(C(C)(C)C#N)c(Cl)c4)(C4CCCC4)OC3=O)nn2c1` (racemic) [A(203), 2-(2-Chloro-4-{2-[2-cyclopentyl-4-hydroxy-5-(6-methyl-[1,2,4]triazolo[1,5-a]pyrimidin-2-ylmethyl)-6-oxo-3,6-dihydro-2H-pyran-2-yl]-ethyl}-phenyl)-2-methyl-propionitrile] is 4-fold higher in IC50: 5 nM for the first, 20 nM for the second. The first is the more potent here.

Going from `Cc1nc(CC2=C(O)CC(CCc3ccc(OC(F)F)c(Cl)c3)(C3CCCC3)OC2=O)n(C)n1` (centres unmarked) [B(74), 6-{2-[3-Chloro-4-(difluoromethoxy)phenyl]ethyl}-6-cyclopentyl-3-[(1,3-dimethyl-1H-1,2,4-triazol-5-yl)methyl]-4-hydroxy-5,6-dihydro-2H-pyran-2-one] to `Cc1cc(C)n2nc(CC3=C(O)CC(CCc4ccc(OCC5CC5)c(Cl)c4)(C4CCCC4)OC3=O)nc2n1` (centres unmarked) [B(28), 6-[2-(3-Chloro-4-cyclopropylmethoxy-phenyl)-ethyl]-6-cyclopentyl-3-(5,7-dimethyl-[1,2,4]triazolo[1,5-a]pyrimidin-2-ylmethyl)-4-hydroxy-5,6-dihydro-pyran-2-one], the IC50 falls from 3400 nM to 11 nM (310-fold).

Compared with `COC(=O)C(C)(C)c1ccc(CCC2(C3CCCC3)CC(=O)CC(=O)O2)cc1` (centres unmarked) [A(33), 2-{4-[2-(2-Cyclopentyl-4,6-dioxo-tetrahydro-pyran-2-yl)-ethyl]-phenyl}-2-methyl-propionic acid methyl ester], `CC(C)(C)C(=O)c1ccc(CCC2(C3CCCC3)CC(=O)CC(=O)O2)cc1` (centres unmarked) [A(37), 6-Cyclopentyl-6-{2-[4-(2,2-dimethyl-propionyl)-phenyl]-ethyl}-dihydro-pyran-2,4-dione] is 1.7-fold higher in IC50: 5000 nM for the first, 8700 nM for the second. The first is the more potent here.

Compared with `COc1ccc(CCC2(C3CCCC3)CC(O)=C(Sc3nc4cc(C#N)ccc4[nH]3)C(=O)O2)cc1Cl` (centres unmarked) [C(55), 2-({6-[2-(3-chloro-4-methoxyphenyl)ethyl]-6-cyclopentyl-4-hydroxy-2-oxo-5,6-dihydro-2H-pyran-3-yl}thio)-1H-benzimidazole-5-carbonitrile], `COc1ccc(CCC2(C3CCCC3)CC(O)=C(Sc3nc4cc(Cl)c(F)cc4[nH]3)C(=O)O2)cc1Cl` (centres unmarked) [C(61), 3-[(5-chloro-6-fluoro-1H-benzimidazol-2-yl)thio]-6-[2-(3-chloro-4-methoxyphenyl)ethyl]-6-cyclopentyl-4-hydroxy-5,6-dihydro-2H-pyran-2-one] is 4.7-fold higher in IC50: 30 nM for the first, 140 nM for the second. The first is the more potent here.

Compared with `COc1cc(OC)c(CCC2(C3CCCC3)CC(O)=C(Sc3nc(O)cc(C(F)(F)F)n3)C(=O)O2)cc1Cl` (centres unmarked) [C(74), 6-[2-(5-chloro-2,4-dimethoxyphenyl)ethyl]-6-cyclopentyl-4-hydroxy-3-{[4-hydroxy-6-(trifluoromethyl)pyrimidin-2-yl]thio}-5,6-dihydro-2H-pyran-2-one], `COc1cc(OC)c(CCC2(C3CCCC3)CC(O)=C(Cc3nc(-c4ccccn4)no3)C(=O)O2)cc1Cl` (centres unmarked) [B(73), 6-[2-(5-Chloro-2,4-dimethoxyphenyl)ethyl]-6-cyclopentyl-4-hydroxy-3-[(3-pyridin-2-yl-1,2,4-oxadiazol-5-yl)methyl]-5,6-dihydro-2H-pyran-2-one] is 1.6-fold lower in IC50: 99 nM for the first, 62 nM for the second. The second is the more potent here.

First: N#CC1(c2ccc(CCC3(C4CCCC4)CC(=O)CC(=O)O3)cc2F)CCC1 (centres unmarked) [A(237), 1-{4-[2-(2-Cyclopentyl-4,6-dioxo-tetrahydro-pyran-2-yl)-ethyl]-2-fluoro-phenyl}-cyclobutanecarbonitrile]
Second: N#CC1(c2c(F)cc(CCC3(C4CCCC4)CC(=O)CC(=O)O3)cc2F)CC1 (centres unmarked) [A(255), 1-{4-[2-(2-Cyclopentyl-4,6-dioxo-tetrahydro-pyran-2-yl)-ethyl]-2,6-difluoro-phenyl}-cyclopropanecarbonitrile]
The IC50 of the first is 1.9-fold lower: 1000 nM for the first, 1900 nM for the second.

First: CC(C)Oc1ccc(CCC2(C3CCCC3)CC(O)=C(Sc3nc4cc(Cl)ccc4n3C(C)C)C(=O)O2)cc1F (centres unmarked) [C(02)]
Second: Cc1cc(C)n2nc(CC3=C(O)CC(CCc4ccc(C5(C#N)CC5)c(F)c4)(C4CCCC4)OC3=O)nc2n1 (centres unmarked) [B(76), 1-(4-{2-[2-Cyclopentyl-5-(5,7-dimethyl-[1,2,4]triazolo[1,5-a]pyrimidin-2-ylmethyl)-4-hydroxy-6-oxo-3,6-dihydro-2H-pyran-2-yl]-ethyl}-2-fluoro-phenyl)-cyclopropanecarbonitrile]
The IC50 of the first is 14-fold higher: 14 nM for the first, 1 nM for the second. The second is the more potent here.

`CCC(=O)c1cc(OC)ccc1CCC1(C2CCCC2)CC(=O)CC(=O)O1` (centres unmarked) [A(62), 6-cyclopentyl-6-[2-(4-methoxy-2-propionylphenyl)ethyl]dihydro-2H-pyran-2,4(3H)-dione] and `NS(=O)(=O)c1cccc(C#CCCC2(C3CCCC3)CC(=O)CC(=O)O2)c1` (centres unmarked) [F(2), 3-[4-(2-Cyclopentyl-4,6-dioxo-tetrahydro-pyran-2-yl)-but-1-ynyl]-benzenesulfonamide] are within 1.5-fold of each other in IC50: 8300 nM for the first, 7200 nM for the second.

First: Cc1cnc2nc(CC3=C(O)CC(CCc4cc(F)c(C(C)(C)C#N)c(F)c4)(C4CCCC4)OC3=O)nn2c1 (single isomer, unassigned; (-)) [A(258), (−)-2-(4-{2-[2-Cyclopentyl-4-hydroxy-5-(6-methyl-[1,2,4]triazolo[1,5-a]pyrimidin-2-ylmethyl)-6-oxo-3,6-dihydro-2H-pyran-2-yl]-ethyl}-2,6-difluoro-phenyl)-2-methyl-propionitrile]
Second: Cc1cnc2nc(CC3C(=O)CC(CCc4ccc(C(C)(C)C#N)c(F)c4)(C4CCCC4)OC3=O)nn2c1 (single isomer, unassigned; (+)) [A(109), (+)-2-(4-{2-[2-Cyclopentyl-5-(6-methyl-[1,2,4]triazolo[1,5-a]pyrimidin-2-ylmethyl)-4,6-dioxo-tetrahydro-pyran-2-yl]-ethyl}-2-fluoro-phenyl)-2-methyl-propionitrile]
The IC50 of the first is 2-fold lower: 2 nM for the first, 4 nM for the second.

Compared with `O=C1OC(CCc2ccc(O)c(CC(F)(F)F)c2)(C2CCCC2)CC(O)=C1Cc1nc2ncc(Cl)cn2n1` (racemic) [A(223), 3-[(6-chloro[1,2,4]triazolo[1,5-a]pyrimidin-2-yl)methyl]-6-cyclopentyl-4-hydroxy-6-{2-[4-hydroxy-3-(2,2,2-trifluoroethyl)phenyl]ethyl}-5,6-dihydro-2H-pyran-2-one], `CCCc1cc(CCC2(C3CCCC3)CC(O)=C(Cc3nc4nc(C)cc(C)n4n3)C(=O)O2)ccc1O` (centres unmarked) [A(136), 6-cyclopentyl-3-[(5,7-dimethyl[1,2,4]triazolo[1,5-a]pyrimidin-2-yl)methyl]-4-hydroxy-6-[2-(4-hydroxy-3-propylphenyl)ethyl]-5,6-dihydro-2H-pyran-2-one] is 2.5-fold lower in IC50: 5 nM for the first, 2 nM for the second. The second is the more potent here.

`COc1ccc(CCC2(C3CCCC3)CC(=O)C(Cc3cccnc3)C(=O)O2)cc1Cl` (centres unmarked) [B(80), 6-[2-(3-chloro-4-methoxyphenyl)ethyl]-6-cyclopentyl-3-(pyridin-3-ylmethyl)dihydro-2H-pyran-2,4(3H)-dione] and `COc1ccc(CCC2(C3CCCC3)CC(=O)C(Cc3ccncc3)C(=O)O2)cc1Cl` (centres unmarked) [B(82), 6-[2-(3-chloro-4-methoxyphenyl)ethyl]-6-cyclopentyl-3-(pyridin-4-ylmethyl)dihydro-2H-pyran-2,4(3H)-dione] are within 1.5-fold of each other in IC50: 560 nM for the first, 680 nM for the second.

For `N#CC1(c2ccc(CCC3(C4CCCC4)CC(O)=C(Cc4nc5ncccn5n4)C(=O)O3)cc2F)CCC1` (centres unmarked) [A(238), 1-{4-[2-(2-Cyclopentyl-4-hydroxy-6-oxo-5-[1,2,4]triazolo[1,5-a]pyrimidin-2-ylmethyl-3,6-dihydro-2H-pyran-2-yl)-ethyl]-2-fluoro-phenyl}-cyclobutanecarbonitrile], the IC50 was 10 nM.
